Data published in PubChem BioAssay AID179 (DTP/NCI, 2004).
Activity calls are given as the source filed them.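 Rule for the calls: active = compounds giving half or more protection of infected cells from virus-caused growth loss, again on retest; inactive = the rest.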

System: CEM cells HIV-1 protection, formazan growth assay
Assay: NCI AIDS Antiviral Assay
Conditions: for IC50: measured here: growth of uninfected CEM cells
Summary of the method: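 Soluble formazan readout of cell growth; CEM cells ± HIV-1; 5 drug concs. ≥50% protection → retest; ≥50% again = moderately active; reproducible 100% = confirmed active.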

| Structure (SMILES) | EC50 [µM] | IC50 [µM] | outcome |
| --- | --- | --- | --- |
| COc1ccc(Nc2nc3c([nH]2)c(=O)n(C)c(=O)n3C)cc1 | > 200 | > 200 | – |
| Cc1ccc(NC(=O)CC/C(CC(=O)C(C)(C)C)=N/NC(=O)C(N)=O)cc1C | > 324 | > 324 | – |
| N#CC1=C(S)N(C2OC(CO)C(O)C(O)C2O)C(c2ccccc2)=CC1c1ccco1 (configuration not stated) | > 200 | 42.7 | – |
| O=C1NC2(CCN(CCCC3(c4ccc(F)cc4)OCCO3)CC2)Oc2ccccc21 | > 100 | > 100 | – |
| O=C(O)c1cc(N=Nc2cccc([N+](=O)[O-])c2)ccc1O | > 200 | 67.6 | – |
| CCN(CC)c1ccc(N=Cc2cc(=O)n(C)c3ccccc23)cc1 | > 200 | 3.72 | – |
| COc1cc(OC)c2c(c1)C(=O)c1cccc(O)c1C2=O | – | – | inactive |
| CCO/C=C/C=C(C(=O)OCC)C(=O)OCC | > 148 | > 148 | – |
| CC(=O)Nc1ccc(/C=C(\NC(=O)c2ccccc2)C(=O)NNS(=O)(=O)c2ccc(C)cc2)cc1 | > 52.5 | > 52.5 | – |
| COc1ccc(NC(=O)CSc2nnc(-c3ccc(N=Cc4ccc(Cl)cc4)cc3)o2)cc1 | > 141 | 31.6 | – |
| CC1(C)OC(=O)C(c2ccsc2)C(=O)O1 | > 1100 | 589 | – |
| CC1=C(C)C(=O)c2c(cc3ccc4ccccc4n23)C1=O | – | – | inactive |
| O=C(NC1C2CC3CC(C2)CC1C3)c1ccncn1 (configuration not stated) | > 513 | > 513 | – |
| Cc1cc([N+](=O)[O-])ccc1N=NC(=O)NNc1ccc([N+](=O)[O-])cc1C | > 200 | 33.9 | – |
| O=c1n(-c2ccccc2)c(=O)n2n1C1CC3c4ccccc4C1C2C31CC1 (configuration not stated) | > 35.5 | > 35.5 | – |
| Cc1ccc(S(=O)(=O)/C(C#N)=C/NC(=S)Nc2cc(Cl)ccc2Cl)cc1 | – | – | inactive |
| CCc1cccc(C(C)CC)c1NC(=O)CC1C(=O)Nc2ccccc2S1(=O)=O (configuration not stated) | > 12 | > 12 | – |
| CC(=O)O/N=C/c1ncccc1OC(C)=O | > 1120 | > 1120 | – |
| COc1cc2c(c([N+](=O)[O-])c1)NC(=O)C(c1ccccc1)S2 (configuration not stated) | > 200 | 110 | – |
| O=C1N(C2CCCCC2)C(=O)N1C1CCCCC1 | 8.32 | 17.8 | – |
| O=C(O)CSc1n[nH]c(/C=C/c2ccccc2)n1 | > 955 | > 955 | – |
| S=c1oc(CCCCCCCCc2nn(CNc3ccc(Cl)cc3)c(=S)o2)nn1CNc1ccc(Cl)cc1 | – | – | inactive |

| Structure (SMILES) | EC50 [µM] | IC50 [µM] | outcome |
| --- | --- | --- | --- |
| Oc1ccc(Cl)cc1-c1[nH]c(=S)nc(-c2ccccc2)c1Cl | > 200 | > 200 | – |
| S=c1[nH]c(=S)c2sc(=S)n(-c3ccccc3)c2[nH]1 | > 115 | 56.2 | – |
| O=C1C=CC(=O)N1n1c(Cc2ccccc2)n[nH]c1=O | > 200 | > 200 | – |
| CN1CC[C@@H](c2ccccc2)[C@@H](O)C1 | – | – | inactive |
| CC1=NC2C(=O)N(C)C(=O)N(C)C2n2c(O)ccc21 (configuration not stated) | > 2 | > 2 | – |
| C/C(=N/OC(=O)N(C)C)c1cccs1 | > 200 | > 200 | – |
| NS(=O)(=O)c1cc2c(cc1Cl)NCNS2(=O)=O | > 832 | 437 | – |
| CCc1n[nH]c(=O)n1N1C(=O)CCC1=O | > 200 | > 200 | – |
| CC(C)c1ccc(C(=O)c2ccccc2C(=O)O)cc1 | > 200 | > 200 | – |
| O=C(O)Cn1nnc2c(=O)[nH][nH]c(=O)c21 | > 200 | > 200 | – |
| COC1(C)C(=O)N2C1N(C(=O)OC(C)(C)C)CC2(C)C (configuration not stated) | > 380 | > 380 | – |
| CC12CCC(=O)C[C@H]1CCC(OC=O)C2Br (some centres not stated) | – | – | inactive |
| C1CCN(c2nc(=[N+]3CCCCC3)ss2)CC1 | – | – | inactive |
| CN(C(=O)C12C3C4C5C3C1(C(=O)O)C5C42)C(C)(C)C (configuration not stated) | > 955 | > 955 | – |
| O=C1NC(Nc2ccccc2)=NC(C(F)(F)F)(C(F)(F)F)N1 | > 200 | 36.3 | – |
| Cn1c2c(c3ccccc31)CCN1C(=O)CN(C(=O)C3CCCCC3)CC21 (configuration not stated) | > 200 | 66.1 | – |
| N#Cc1c(-c2ccc(Cl)cc2)c(-c2ccc(Cl)cc2)nn(CCOC(=O)CCC(=O)O)c1=O | > 513 | 0.468 | – |
| CC(/C=C/c1ccccc1Cl)=N\C(=S)NC(N)=S | > 200 | 20.9 | – |
| COC(=O)C1=COC(O)C2CCCC12 (configuration not stated) | > 1260 | 107 | – |
| CC(C)C1CNC(=O)C2(CCCO2)CNC(C(C)C)CNC(=O)C2(CCCO2)CN1 (configuration not stated) | > 295 | > 295 | – |
| CC1(C)N([O-])[N+](=O)C1(C)Br (configuration not stated) | > 200 | > 200 | – |
| CC(C)OP(=O)(OC(C)C)C1=NN(c2ccc([N+](=O)[O-])cc2)C(P(=O)(OC(C)C)OC(C)C)=NN1c1ccc([N+](=O)[O-])cc1 | > 2.19 | > 2.19 | – |

| Structure (SMILES) | EC50 [µM] | IC50 [µM] | outcome |
| --- | --- | --- | --- |
| CON(C)c1nc(N(C)OC)nc(N(C)OC)n1 | > 200 | > 200 | – |
| CCC1(c2c(F)c(F)c(N)c(F)c2F)CCC(=O)NC1=O (configuration not stated) | – | – | inactive |
| NC(=O)N/N=C(/CC1C(=O)Oc2ccccc21)c1ccccc1O (configuration not stated) | > 550 | 295 | – |
| C=C(CCCC(C)OC(=O)NC(C)c1cccc2ccccc12)[Si](C)(C)C (configuration not stated) | > 18.6 | > 18.6 | – |
| CC(=O)c1cccc2c1CC1(C2)Cc2ccc3c(c2C1=O)CCC3 (configuration not stated) | > 200 | > 200 | – |
| Cc1nc(C(N)=S)sc1/C(CC(=O)C(=O)Nc1cccc2ccc(O)cc12)=N\NC(=O)c1ccncc1 | > 35.5 | > 35.5 | – |
| CN(C)c1ccc(-c2c(C#N)c(S)n(NS(=O)(=O)c3ccccc3)c(=O)c2C#N)cc1 | > 200 | 8.32 | – |
| COc1ccc(C[C@H](N)C(=O)NC2C(CO)OC(n3cnc4c(N(C)C)ncnc43)C2O)cc1 (some centres not stated) | > 200 | 0.117 | – |
| O=C(N/N=C\c1ccc([N+](=O)[O-])o1)c1ccncc1 | > 200 | 22.9 | – |
| O=Nc1ccc(O)cc1Cc1ccccc1 | > 200 | 3.63 | – |
| COc1ccc(/C=C/C(=O)c2c(-c3ccccc3)nn(C)c(=O)c2N2CCCC2)cc1 | > 67.6 | > 67.6 | – |
| O=C(NCCO)c1c(CNC2CCCCC2)n([O-])c2ccccc2[n+]1=O | > 501 | > 501 | – |
| CC(C)(C)OC(=O)NCC(O)CNC(=O)OC(C)(C)C | > 871 | > 871 | – |
| C[N+](C)(C)CC(=O)N/N=C/c1oc(-c2cccc([N+](=O)[O-])c2)c(-c2cccc([N+](=O)[O-])c2)c1[N+](=O)[O-] | > 9.77 | > 9.77 | – |
| Cc1cc(NS(=O)(=O)c2ccc(Nc3c4ccccc4nc4c(C(=O)Nc5ccc(S(=O)(=O)N=C(N)N)cc5)ccc(Cl)c34)cc2)no1 | > 51.3 | > 51.3 | – |
| CCC1CN2CCC3(c4ccccc4)CC(C(=O)OC)=CC1C23 (configuration not stated) | > 251 | 38.9 | – |
| CN(C)N=Nc1cn[nH]c1C(N)=O | > 138 | 6.76 | – |
| COc1ccc(CN2COc3c(ccc4ccccc34)C2)cc1 | > 200 | 10.2 | – |
| CC(=O)OCC1OC(n2c(=S)n(-c3ccc([N+](=O)[O-])cc3)c(=O)c3ccccc32)C(OC(C)=O)C(OC(C)=O)C1OC(C)=O (configuration not stated) | > 29.5 | > 29.5 | – |
| CC(=O)O[C@@H]1[C@H](OC(=O)CC(C)C)c2c(ccc3ccc(=O)oc23)OC1(C)C | 13.5 | 53.7 | – |
| NC(=O)N/N=C1/C2CC3CC(C2)C1C3 (configuration not stated) | > 200 | > 200 | – |
| CC1=N/C(=C\c2ccc(F)cc2)C(=O)O1 | > 25.1 | > 25.1 | – |

| Structure (SMILES) | EC50 [µM] | IC50 [µM] | outcome |
| --- | --- | --- | --- |
| CC(C)C1=Cc2ccc3c(c2C(=O)C1=O)CCCC3(C)C | > 18.6 | 2.95 | – |
| Cn1c(=O)c2c(nc(N/N=c3/scc(-c4ccccc4)n3Cc3ccccc3)n2C)n(C)c1=O | > 200 | 12.3 | – |
| CCN(CC)c1ccc2cc(-n3nnc4ccccc43)c(=O)oc2c1 | > 8.13 | > 8.13 | – |
| O=Cc1[nH]c(=O)[nH]c(=O)c1CO | > 200 | 93.3 | – |
| O=C(O)C1CCCN1C(=O)c1ccccn1 (configuration not stated) | > 200 | > 200 | – |
| CNCCS(=O)(=O)O | > 200 | > 200 | – |
| CCN(CC)C(=O)c1c2nc3c(C(=O)N(CC)CC)ccc(C)c3oc-2c(C)c(=O)c1N | > 200 | 83.2 | – |
| O=C1/C(=C/c2ccco2)NC(=S)N1CN1CCOCC1 | > 200 | 91.2 | – |
| Cc1cccc(C)c1NC(=O)CCc1nnc2s/c(=C\c3ccc(N(C)C)cc3)c(=O)n12 | > 1.7 | > 1.7 | – |
| O=C1CC2C(=O)C1C(C(=O)O)C2C(=O)O (configuration not stated) | > 1170 | > 1170 | – |
| CCOC(=O)CN1CCC(C2(c3cc4ccccc4[nH]3)OCCO2)CC1 | > 363 | > 363 | – |
| O=C(NNC(=S)Nc1ccccc1)c1csc(NC(=S)NC2CCCCC2)n1 | 6.92 | 7.41 | – |
| CC(=C/c1ccccc1)/C=C1/NC(=S)N(CN2CCCCCC2)C1=O | > 200 | 110 | – |
| COC(=O)[C@@H]1C[C@@H](O)CN1C(=O)c1ccc([N+](=O)[O-])cc1[N+](=O)[O-] | > 200 | 129 | – |
| CC(C)[C@H]1CO[C@@H]2O[C@H](C)C(C)C(=O)N21 (some centres not stated) | > 1170 | > 1170 | – |
| O=C1SC(c2ccccc2)(c2ccccc2)c2cscc21 | > 61.7 | > 61.7 | – |
| Oc1ccc(/C=C\c2cnccn2)cc1 | > 251 | 33.9 | – |
| COc1ccc(-c2oc3cc(O)c(OC)c(O)c3c(=O)c2OC2OC(CO)C(O)C(O)C2O)cc1 (configuration not stated) | – | – | inactive |
| COc1ccc(NC(=O)/C(=N\NC(=O)C[n+]2ccccc2)c2c(O)c3ccc(O)cc3oc2=O)c([N+](=O)[O-])c1 | > 437 | 72.4 | – |
| CCCN(CCC)C(=S)Sc1nc(C)nc(N2CCN(c3nc(C)nc(SC(=S)N(CCC)CCC)c3[N+](=O)[O-])CC2)c1[N+](=O)[O-] | > 200 | 2.04 | – |
| CC1(C)CC(=O)c2c(nc3ccc4ccccc4c3c2-c2ccc(NC(=O)CCCC(=O)Nc3ccc(-c4c5c(nc6ccc7ccccc7c46)CC(C)(C)CC5=O)cc3)cc2)C1 | > 100 | > 100 | – |
| O=C1C=CC2OC(c3ccccc3)[C@H](O)C2O1 (some centres not stated) | > 1070 | 6.92 | – |
